# Laboratory results reported in article PMC6420499 (Scientific Reports, 2019).
# Assays:
# recombinant CYP26A1 [1] = molecular target: T1, recombinant CYP26A1 (Homo sapiens, UniProt O43174); experiment: Metabolite identification, atRA with recombinant CYP26A1; type: in vitro ADME; conditions: 5 µM atRA, 5 pmol CYP26A1, 2 min
# T1 construct: made in house; host or cells: baculovirus infected insect cells (membrane fractions)
# T1 sequence (O43174 1-497): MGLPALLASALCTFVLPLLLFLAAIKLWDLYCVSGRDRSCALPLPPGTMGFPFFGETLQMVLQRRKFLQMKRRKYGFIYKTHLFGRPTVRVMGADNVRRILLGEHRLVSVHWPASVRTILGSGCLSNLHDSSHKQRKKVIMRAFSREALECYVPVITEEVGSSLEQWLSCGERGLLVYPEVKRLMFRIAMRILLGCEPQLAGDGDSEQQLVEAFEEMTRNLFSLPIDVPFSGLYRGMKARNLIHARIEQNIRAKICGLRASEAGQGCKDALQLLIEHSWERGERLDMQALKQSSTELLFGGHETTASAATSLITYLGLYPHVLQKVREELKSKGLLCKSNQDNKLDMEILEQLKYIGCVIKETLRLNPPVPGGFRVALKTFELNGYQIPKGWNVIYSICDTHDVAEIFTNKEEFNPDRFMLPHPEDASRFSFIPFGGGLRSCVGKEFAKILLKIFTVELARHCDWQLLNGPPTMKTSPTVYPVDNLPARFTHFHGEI
# Procedure: (§1) The incubations were quenched with ethyl acetate, metabolites extracted as previously described[15] and the product formation was then measured by LC-MS/MS as described below. For fetal liver S9 incubations two representative livers were chosen based on the mRNA expression levels of CYP3A7 and CYP26A1. […] After a pre-incubation of 5 min the reactions were initiated with the addition of NADPH (1 mM final concentration) and allowed to proceed for 10 min.
# (§2) In brief, analytes were separated using a gradient elution as follows: starting from 10:90 acetonitrile: aqueous to 1:1 acetonitrile: aqueous over 0.5 min then increased to 85:15 acetonitrile: aqueous over 4 min and then after a 0.1 min hold increased to 95:5 acetonitrile: aqueous held for 2.5 min. The aqueous phase contained 0.1 % formic acid throughout. […] Retinoid concentrations were quantified using Analyst software and peak height ratios between the analyte and the internal standard (4-oxo-RA-d3).
# [2] = In vitro to in vivo scaling of atRA metabolism, fetal liver extraction ratio (well-stirred model); type: in vitro ADME, human; conditions: at any gestational age
# [3] = atRA metabolite formation in human placental S9 preparations; type: in vitro ADME; conditions: preliminary studies, data not shown
# recombinant CYP26B1 = molecular target: T2, recombinant CYP26B1 (Homo sapiens, UniProt Q9NR63); experiment: Metabolite identification, atRA with recombinant CYP26B1; type: in vitro ADME; conditions: 5 µM atRA, 5 pmol CYP26B1, 10 min
# T2 construct: made in house; host or cells: baculovirus infected insect cells (membrane fractions)
# T2 sequence (Q9NR63 1-512): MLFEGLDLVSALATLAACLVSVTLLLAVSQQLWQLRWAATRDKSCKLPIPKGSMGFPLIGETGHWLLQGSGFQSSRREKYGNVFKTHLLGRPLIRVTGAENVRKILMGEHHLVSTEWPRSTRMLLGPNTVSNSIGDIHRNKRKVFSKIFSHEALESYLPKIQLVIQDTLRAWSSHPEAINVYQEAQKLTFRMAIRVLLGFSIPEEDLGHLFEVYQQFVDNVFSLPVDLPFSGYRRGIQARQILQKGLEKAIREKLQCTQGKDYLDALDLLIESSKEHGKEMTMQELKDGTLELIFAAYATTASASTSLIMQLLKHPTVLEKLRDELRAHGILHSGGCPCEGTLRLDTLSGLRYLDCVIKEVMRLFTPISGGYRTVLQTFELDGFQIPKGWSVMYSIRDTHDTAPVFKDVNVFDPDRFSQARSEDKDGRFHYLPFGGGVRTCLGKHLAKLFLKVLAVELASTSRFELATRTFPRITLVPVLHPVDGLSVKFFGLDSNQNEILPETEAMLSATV
# Description: (§3) The aqueous phase contained 0.1 % formic acid throughout.
# [4] = Metabolite identification, atRA in representative human fetal liver S9 fractions; type: in vitro ADME; conditions: 5 µM atRA, 0.3 mg S9 protein in 1 mL, 10 min, two representative livers
# Procedure: as §1, §2
# [5] = set-up: method as in PMID 20513361; conditions: value used for scaling; cited from earlier work
# recombinant CYP3A7 = molecular target: T3, recombinant CYP3A7 (Homo sapiens, UniProt P24462); experiment: Inhibition of recombinant CYP3A7 mediated 4-OH-RA formation; type: biochemical; conditions: CYP3A7 5 pmol/mL, 10 min
# T3 construct: purchased BD Gentest
# T3 sequence (P24462 whole entry): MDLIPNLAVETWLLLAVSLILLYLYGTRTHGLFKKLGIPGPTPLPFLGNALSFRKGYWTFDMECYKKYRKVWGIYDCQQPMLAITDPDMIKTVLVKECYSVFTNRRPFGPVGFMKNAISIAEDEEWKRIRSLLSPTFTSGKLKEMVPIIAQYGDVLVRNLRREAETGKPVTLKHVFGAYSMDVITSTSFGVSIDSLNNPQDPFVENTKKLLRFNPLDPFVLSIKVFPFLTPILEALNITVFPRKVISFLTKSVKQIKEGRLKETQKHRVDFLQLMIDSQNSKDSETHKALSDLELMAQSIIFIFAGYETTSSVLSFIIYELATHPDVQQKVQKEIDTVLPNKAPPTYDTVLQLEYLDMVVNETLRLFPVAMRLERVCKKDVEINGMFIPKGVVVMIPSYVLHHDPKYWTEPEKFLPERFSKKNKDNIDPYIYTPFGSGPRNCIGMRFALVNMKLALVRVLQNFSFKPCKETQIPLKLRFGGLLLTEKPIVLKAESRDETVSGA
# Procedure: (§4) Talarozole was chosen as the CYP26 inhibitor based on previous characterization of its potency towards CYP26A1 and CYP26B1[34]. Ketoconazole was included in the analysis as it is a well characterized pan-CYP inhibitor with high potency both towards CYP3A7 and CYP26s[16],[34]. […] All of the samples were extracted and analyzed by HPLC-MS/MS. […] Incubations were performed as described above for fetal livers and analyzed for metabolite formation by HPLC-MS/MS. The percent inhibition was calculated by comparing the metabolite formation velocity in the presence of the inhibitor to vehicle control.
# as §3
# [6] = tested on: CYP3A7 (atRA metabolite formation in fetal liver S9); experiment: Inhibition of atRA metabolite formation in human fetal liver S9 fractions by CYP selective inhibitors; type: in vitro ADME; conditions: human, human fetal liver S9 fractions, probe atRA (all-trans retinoic acid), 500 nM
# Procedure: as §4, §3
# CYP26 = tested on: CYP26; set-up: method as in PMID 21521770; conditions: cited from earlier work
# CYP3A7 = tested on: CYP3A7; set-up: method as in PMID 21521770; conditions: cited from earlier work
# [7] = tested on: atRA metabolite formation in human fetal liver S9 fractions; experiment: Inhibition of atRA metabolite formation in human fetal liver S9 fractions by CYP selective inhibitors; type: in vitro ADME; conditions: ketoconazole 10 µM, atRA 500 nM, S9 fractions from four representative donors, vs vehicle control
# Procedure: as §4, §3
# [8] = tested on: CYP26 (atRA metabolite formation in fetal liver S9); experiment: as above; type: in vitro ADME; conditions: human, human fetal liver S9 fractions, probe atRA (all-trans retinoic acid), 500 nM
# Procedure: as §4, §3
# recombinant CYP26A1 [9] = molecular target: T1, recombinant CYP26A1; experiment: Inhibition of recombinant CYP26A1 mediated 4-OH-RA formation; type: biochemical; conditions: talarozole 200 nM, atRA 500 nM, CYP26A1 2 pmol/mL, 2 min
# Procedure: as §4, §3
structure (smiles),measurement,setting,value
"CC1=C(/C=C/C(C)=C/C=C/C(C)=C/C(=O)O)C(C)(C)CCC1 [atRA, All-trans-retinoic acid]",atRA metabolites formed,recombinant CYP26A1 [1],hydroxylated atRA at multiple sites
same,maternal atRA that could be extracted by fetal liver,[2],≤ 5%
same,formation of atRA metabolites,[3],did not observe any formation of atRA metabolites
same,atRA metabolites formed,recombinant CYP26B1,hydroxylated atRA at multiple sites
same,atRA metabolites observed,[4],only the formation of 4-OH-RA and its metabolite 4-oxo-RA was observed
same,plasma unbound fraction (fu),[5],0.01
OC(Cn1cncn1)(Cn1cncn1)c1ccc(F)cc1F [fluconazole],inhibition of CYP3A7 mediated 4-OH-atRA formation,"recombinant CYP3A7; fluconazole 300 μM, atRA 10 µM",confirmed
same,inhibition at 200 µM,[6],30 to 60%
same,inhibition of CYP26,CYP26,not to inhibit
CC(=O)N1CCN(c2ccc(OCC3COC(Cn4ccnc4)(c4ccc(Cl)cc4Cl)O3)cc2)CC1 (stereo not drawn) [ketoconazole],inhibition of CYP3A7,CYP3A7,inhibits
same,decrease in atRA metabolite formation,[7],> 95%
same,inhibition of CYP26,CYP26,inhibits
CCC(CC)C(c1ccc(Nc2nc3ccccc3s2)cc1)n1cncn1 (stereo not drawn) [talarozole],inhibition of CYP3A7 mediated 4-OH-RA formation,"recombinant CYP3A7; talarozole 200 nM, atRA 500 nM",did not significantly inhibit
same,inhibition at 200 nM,[8],30 to 40%
same,inhibition of CYP26A1,recombinant CYP26A1 [9],reproduced
